# Test results taken from patent publication US6933321B2, “Antiandrogenic biphenyls” (Endorecherche, Inc., priority 2002, dated 2005).
# Where two headings read alike, the source gives them in different places.
# System: Shionogi mouse mammary carcinoma cells
# Experiment: Antiandrogenic activity on DHT-stimulated Shionogi mouse mammary carcinoma cell number
# Assay type: cell-based
# Conditions: for A = Ki OH-Flu/Ki compound: ratio of Ki of hydroxyflutamide versus tested compound, higher values preferable
# [1] = Mus musculus, inhibition of DHT-stimulated Shionogi cell number, 10-12 days, read-out: Antiandrogenic activity IC50
# [2] = inhibition of DHT-stimulated Shionogi cell number
# [3] = Mus musculus, read-out: Antiandrogenic activity IC50 (nM)
Compound,IC50 [1],A = Ki OH-Flu/Ki compound [2],IC50 [3],"IC50 (inhibition of DHT-stimulated Shionogi cell number, 10-12 days, read-out: Antiandrogenic activity IC50)"
CN(C)c1ccc(-c2ccc(C#N)c(C(F)(F)F)c2)cc1 [EM-3814],150 nM,0.9,,
COc1ccc(-c2c(F)cc(F)cc2F)cc1C(F)(F)F [EM-4833],> 500 nM,<0.2,,
N#Cc1ccc(-c2ccc(F)c(F)c2)cc1C(F)(F)F [EM-4047],,<1,> 100 nM,
N#Cc1ccc(-c2ccc(F)cc2F)cc1[N+](=O)[O-] [EM-4633],96 nM,0.8,,
CC(O)(c1ccc(-c2ccc(C#N)c(C(F)(F)F)c2)cc1)C(F)(F)F (stereo not drawn) [EM-4026],> 500 nM,<0.2,,
"N#Cc1ccc(-c2ccc(F)cc2F)cc1Cl [EM-4283, 3-chloro-2′,4′-difluoro-biphenyl-4-carbonitrile]",,2.3,37 nM,
CS(=O)(=O)Nc1ccc(-c2ccc(C#N)c(C(F)(F)F)c2)cc1 [EM-4244],> 500 nM,<0.2,,
CSc1cc(-c2ccc(C#N)cc2)ccc1C#N [EM-4285],> 500 nM,<0.2,,
N#Cc1cc(F)ccc1-c1ccc(C#N)c(C(F)(F)F)c1 [EM-4096],> 500 nM,<0.2,,
N#Cc1ccc(-c2c(F)cc(F)cc2F)cc1C(F)(F)F [EM-4203],280 nM,0.6,,
N#Cc1ccc(-c2ccc(C#N)c(C(F)(F)F)c2)cc1F [EM-4065],,<0.2,> 500 nM,
CN(C)C(=O)c1cc(F)ccc1-c1ccc(C#N)c(C(F)(F)F)c1 [EM-4865],> 500 nM,<0.2,,
N#Cc1ccc(-c2ccc(F)cc2)cc1C(F)(F)F [EM-3705],129 nM,0.7,,
N#Cc1ccc(-c2ccc(Cl)cc2)cc1C(F)(F)F [EM-3703],,0.3,97 nM,
N#Cc1ccc(-c2ccc(C#N)c(C(F)(F)F)c2)c(Cl)c1 [EM-4205],,3.0,52 nM,
N#Cc1ccc(-c2ccc(Br)cc2C(N)=O)cc1C(F)(F)F [EM-4979],> 500 nM,<0.2,,
N#Cc1ccc(-c2cccc(F)c2)cc1C(F)(F)F [EM-3977],> 500 nM,<0.2,,
COc1ccc(-c2ccc(C#N)c(C(F)(F)F)c2)c(C(N)=O)c1 [EM-4905],> 500 nM,<0.2,,
N#Cc1ccc(-c2c(NC(=O)c3ccc(Cl)cc3)cc(F)cc2C(N)=O)cc1C(F)(F)F [EM-5094],> 500 nM,<0.2,,
Cc1cc(-c2ccc(C#N)c(C(F)(F)F)c2)ccc1C#N [EM-4069],110 nM,0.7,,
CCCNC(=O)c1cc(F)ccc1-c1ccc(C#N)c(C(F)(F)F)c1 [EM-4855],> 500 nM,<0.2,,
CCCN(CCC)C(=O)c1cc(F)ccc1-c1ccc(C#N)c(C(F)(F)F)c1 [EM-4845],> 500 nM,<0.2,,
COc1ccc(Cl)cc1-c1ccc(C#N)c(C(F)(F)F)c1 [EM-3747],> 500 nM,<0.2,,
CCCCN(CCCC)C(=O)c1cc(F)ccc1-c1ccc(C#N)c(C(F)(F)F)c1 [EM-4844],> 500 nM,<0.2,,

Compound,IC50 [1],A = Ki OH-Flu/Ki compound [2],IC50 [3],"IC50 (inhibition of DHT-stimulated Shionogi cell number, 10-12 days, read-out: Antiandrogenic activity IC50)"
CC(O)(c1ccc(-c2ccc(C#N)cc2)cc1)C(F)(F)F (stereo not drawn) [EM-3979],> 500 nM,<0.2,,
N#Cc1ccc(-c2ccc(F)cc2C(=O)Nc2ccccc2)cc1C(F)(F)F [EM-4864],,<0.2,> 500 nM,
CCN(CC)C(=O)c1ccc(-c2ccc(C#N)c(C(F)(F)F)c2)cc1 [EM-3987],> 500 nM,<0.2,,
C[C@@](O)(c1cccc(-c2ccc(C#N)c(C(F)(F)F)c2)c1)C(F)(F)F [EM-4264],,1.6,54 nM,
N#Cc1ccc(-c2ccc(F)cc2C(=O)Nc2ccc(F)cc2)cc1C(F)(F)F [EM-5018],> 500 nM,<0.2,,
CSc1cc(-c2ccc(F)cc2F)ccc1C#N [EM-4288],28 nM,4.4,,
CCN(CC)C(=O)c1cc(F)ccc1-c1ccc(C#N)c(C(F)(F)F)c1 [EM-4841],> 500 nM,<0.2,,
COc1ccc(-c2ccc(F)cc2F)cc1Br [EM-4871],> 500 nM,<0.2,,
N#Cc1ccccc1-c1ccc(C#N)c(C(F)(F)F)c1 [EM-4071],,2.5,33 nM,
N#Cc1ccc(-c2ccc(F)cc2[N+](=O)[O-])cc1C(F)(F)F [EM-4234],,3.2,43.2 nM,
N#Cc1ccc(-c2ccc(C(O)C(F)(F)F)cc2)cc1C(F)(F)F (stereo not drawn) [EM-3998],> 500 nM,<0.2,,
COc1ccc(-c2ccc(C#N)cc2)cc1Br [EM-4036],> 500 nM,<0.2,,
N#Cc1ccc(-c2ccc(C#N)c(F)c2)cc1 [EM-4280],> 500 nM,<0.2,,
N#Cc1ccc(-c2ccc(Br)c([N+](=O)[O-])c2)cc1 [EM-4338],> 500 nM,<0.2,,
N#Cc1ccc(-c2ccc(F)cc2F)cc1F [EM-4282],> 500 nM,<0.2,,
N#Cc1ccc(-c2ccc(F)cc2C(=O)NCc2ccccc2)cc1C(F)(F)F [EM-5085],> 500 nM,<0.2,,
N#Cc1ccc(-c2ccc(C#N)c([N+](=O)[O-])c2)cc1 [EM-4344],> 500 nM,<0.2,,
N#Cc1ccc(-c2ccc(C#N)c(C(F)(F)F)c2)c(C(N)=O)c1 [EM-4320],> 500 nM,<0.2,,
N#Cc1ccc(-c2ccc(F)cc2)cc1 [EM-3978],> 500 nM,<0.2,,
N#Cc1ccc(-c2ccc(Br)c(C(F)(F)F)c2)cc1 [EM-4177],> 500 nM,<0.2,,
COc1ccc(-c2ccc(C#N)c(C(F)(F)F)c2)cc1 [EM-3394],,1.1,49.5 nM,
"N#Cc1ccc(-c2ccc(F)cc2C(N)=O)cc1C(F)(F)F [EM-4171, 4′-Cyano-4-fluoro-3′-trifluoromethyl-biphenyl-2-carboxylic acid amide]",943 nM,0.2,,
N#Cc1ccc(-c2ccc(F)c(Cl)c2)cc1C(F)(F)F [EM-4216],> 500 nM,<0.2,,
N#Cc1ccc(-c2ccc(C#N)cc2)cc1 [EM-3993],> 500 nM,<0.2,,

Compound,IC50 [1],A = Ki OH-Flu/Ki compound [2],IC50 [3],"IC50 (inhibition of DHT-stimulated Shionogi cell number, 10-12 days, read-out: Antiandrogenic activity IC50)"
CCNC(=O)c1cc(F)ccc1-c1ccc(C#N)c(C(F)(F)F)c1 [EM-4866],> 500 nM,<0.2,,
COc1ccc(-c2ccc(C#N)c(C(F)(F)F)c2)c(Cl)c1 [EM-4190],162 nM,0.9,,
N#Cc1ccc(-c2c(F)cc(F)cc2[N+](=O)[O-])cc1C(F)(F)F [EM-4948],> 500 nM,<0.2,,
COc1ccc(-c2ccc(C#N)cc2)cc1C(F)(F)F [EM-4246],> 500 nM,<0.2,,
N#Cc1ccc(-c2ccc([N+](=O)[O-])cc2)cc1C(F)(F)F [EM-4149],> 500 nM,<0.2,,
N#Cc1cc(F)c(-c2ccc(F)cc2F)cc1Cl [EM-5111],> 500 nM,<0.2,,
N#Cc1ccc(-c2ccccc2F)cc1C(F)(F)F [EM-3976],> 500 nM,<0.2,,
Cc1cc(C#N)ccc1-c1ccc(C#N)c(C(F)(F)F)c1 [EM-4079],,0.8,78 nM,
CCCCNC(=O)c1cc(F)ccc1-c1ccc(C#N)c(C(F)(F)F)c1 [EM-4856],> 500 nM,<0.2,,
N#Cc1ccc(-c2ccc(F)cc2C(=O)N2CCCCC2)cc1C(F)(F)F [EM-5020],,<0.2,> 500 nM,
N#Cc1ccc(-c2ccc(C#N)c(C(F)(F)F)c2)cc1 [EM-3730],190 nM,,,152 nM
COC=Nc1cc(F)cc(C(N)=O)c1-c1ccc(C#N)c(C(F)(F)F)c1 [EM-5093],> 500 nM,<0.2,,
N#Cc1ccc(-c2ccc(F)cc2C(N)=O)cc1Cl [EM-4849],> 500 nM,<0.2,,
COc1ccc(-c2ccc([N+](=O)[O-])c(C(F)(F)F)c2)cc1 [EM-3393],129 nM,0.4,,
N#Cc1ccc(-c2ccc(F)cc2C(=O)N2CCOCC2)cc1C(F)(F)F [EM-5021],> 500 nM,<0.2,,
N#Cc1ccc(-c2ccccc2)cc1C(F)(F)F [EM-4118],> 500 nM,<0.2,,
CSc1ccc(NC(=O)c2cc(F)ccc2-c2ccc(C#N)c(C(F)(F)F)c2)cc1 [EM-5082],> 500 nM,<0.2,,
C[S+]([O-])c1ccc(-c2ccc(C#N)c(C(F)(F)F)c2)cc1 (stereo not drawn) [EM-3812],> 500 nM,<0.2,,
Cc1cc(F)cc([N+](=O)[O-])c1-c1ccc(C#N)c(C(F)(F)F)c1 [EM-4947],> 500 nM,<0.2,,
N#Cc1ccc(-c2ccc(C(F)(F)F)cc2)cc1C(F)(F)F [EM-4051],> 500 nM,<0.2,,
N#Cc1ccc(-c2ccc(F)c([N+](=O)[O-])c2)cc1C(F)(F)F [EM-4230],> 500 nM,<0.2,,
CS(=O)(=O)c1cc(C#N)ccc1-c1ccc(C#N)c(C(F)(F)F)c1 [EM-4255],> 500 nM,<0.2,,
N#Cc1ccc(-c2ccc(F)c(C(F)(F)F)c2)cc1 [EM-4249],> 500 nM,<0.2,,
N#Cc1ccc(-c2ccc(F)c(C(F)(F)F)c2)cc1C(F)(F)F [EM-4093],> 500 nM,<0.2,,
